# Results taken from PMC5447021, “TNF Lectin-Like Domain Restores Epithelial Sodium Channel Function in Frameshift Mutants Associated with Pseudohypoaldosteronism Type 1B” (Frontiers in Immunology, 2017).
# How the values were obtained:
# αT169fs = assay: Membrane abundance of αT169fs; assay type: cell-based, human; conditions: 200 nM, relative to WT control (=1)
# Protocol: (§1) Cell surface biotinylation was performed as previously described ([26]). In brief, A549 cells or transiently transfected HEK-293 cells were grown in 10 cm dishes in 37°C, 5% CO2 incubator in DMEM medium supplemented with 5% FBS. […] Medium was aspirated, and then cells were washed twice with 10 ml ice-cold phosphate-buffered saline (PBS), covered with 2.5 mg EZ-Link Sulfo-NHS-SS-Biotin (Thermo Scientific, Rockford, USA), dissolved in 10 ml ice-cold PBS, and incubated at 4°C with gentle agitation for 30 min. Fifty milliliters of quenching solution were added to cells; then cells were scraped in solution and transferred to fresh 50 ml tube. Cell suspension was centrifuged at 500 × g for 3 min. Supernatant was discarded, and 5 ml of Tris-buffered saline (TBS) was added to the cell pellet. The cell pellet was resuspended and centrifuged at 500 × g for 3 min. Supernatant was discarded and cell pellet was resuspended in lysis buffer containing protease inhibitor cocktail (10 µM pepstatin A, 10 µM phenylmethylsulfonyl fluoride, and 10 µM leupeptin) and transferred to fresh 1.5 ml centrifuge tube. Cell pellet was then homogenized on ice by ultrasonication using 1 s bursts and incubated on ice for at least 30 min. Intact cells and nuclei were pelleted by centrifugation at 10,000 × g for 2 min under cooling conditions. […] Exposed films were scanned and quantified using ImageJ (NIH, MD, USA). […]
# A549 cells = conditions: cited from earlier work
# αY447fs = assay: Membrane abundance of αY447fs; assay type: cell-based, human; conditions: 200 nM, relative to WT control (=1), own control 1.27 ± 0.10, p < 0.001 vs control
# Protocol: as §1
# αI68fsβγ-ENaC = assay: Whole-cell patch clamp, αI68fs + WT βγ; assay type: cell-based, human
# Protocol: (§2) Point mutations of α-, β-, γ- and δ-hENaC and PHA1B frameshift mutations of α-hENaC were prepared with the QuikChange Lightning Site-Directed Mutagenesis Kit (Agilent Technologies, CA, USA). Mutagenic primers were designed individually with the Primer Design Program provided on the producer’s website or for the frameshift mutations the same base changes as reported in patients (see Table 2) were performed. Primers were ordered from Sigma-Aldrich, Vienna, Austria.
# (§3) HEK-293 cells were transfected 1 day after cell seeding using X-tremeGENE HP DNA transfection reagent (Roche Diagnostics, Mannheim, Germany) according to the manufacturer’s protocol. A set of WT or mutant αβγ- or δβγ-hENaC, or α-, β-, γ-, or δ-hENaC alone was used, and the ratio of DNA to transfection reagent was 1:3. The expression was highest 48–72 h after transfection.
# (§4) Electrophysiological experiments were performed as described in detail by Shabbir et al. ([16]). […] Currents were recorded with the patch clamp method in the whole-cell mode. The chamber contained 1 ml of the bath solution of the following composition (in mM): 145 NaCl, 2.7 KCl, 1.8 CaCl2, 2 MgCl2, 5.5 glucose, and 10 HEPES, adjusted to pH 7.4 with 1 M NaOH solution. Micropipettes were pulled from thin-walled borosilicate glass capillaries (Harvard Apparatus, Holliston, MA, USA) with a DMZ Zeitz Puller to obtain electrode resistances ranging from 2 to 5 MΩ. […]
# [1] = tested on: αP197fs (co-expressed with βγ-ENaC); assay: Whole-cell patch clamp, αP197fs + WT βγ; assay type: cell-based, human; conditions: read-out: EC50, solnatide, HEK-293, whole-cell, -100 mV, n = 5, p < 0.001 vs WT
# Protocol: as §2, §3, §4
smiles,measurement,setting,value
"C[C@@H]1NC(=O)CNC(=O)[C@H](CCC(=O)O)NC(=O)[C@@H]2CCCN2C(=O)[C@H]([C@@H](C)O)NC(=O)[C@H](CCC(=O)O)NC(=O)[C@H](CCCNC(=N)N)NC(=O)[C@H](CCC(N)=O)NC(=O)CNC(=O)[C@@H](N)CSSC[C@@H](C(=O)O)NC(=O)[C@H](Cc2ccc(O)cc2)NC(=O)[C@H](Cc2c[nH]c3ccccc23)NC(=O)[C@@H]2CCCN2C(=O)[C@H](CCCCN)NC(=O)[C@H](C)NC(=O)[C@H](CCC(=O)O)NC1=O [solnatide, L-cysteine, L-cysteinylglycyl-L-glutaminyl-L-arginyl-L-α-glutamyl-L-threonyl-L-prolyl-L-α-glutamylglycyl-L-alanyl-L-α-glutamyl-L-alanyl-L-lysyl-L-prolyl-L-tryptophyl-L-tyrosyl-, cyclic (1→17)-disulfide]","Membrane abundance, solnatide 5 min","αT169fs; 5 min, own control 0.54 ± 0.06, p < 0.001 vs control",0.80 ± 0.03
same,"Membrane abundance, solnatide 10 min","αT169fs; 10 min, own control 0.54 ± 0.06",0.46 ± 0.09
same,Increase in single channel parameters after PNGase F,"A549 cells; A549 cells, PNGase F pretreated",completely abolished in PNGase F pretreated cells
same,"Single channel open probability, mean open time, number and duration of bursts",A549 cells; A549 cells,significantly increased
same,"Effect on current, A549 cells","A549 cells; endogenous α-, β-, γ-, δ-subunits",current activating effect
same,"Membrane abundance, solnatide 5 min",αY447fs; 5 min,1.57 ± 0.13
same,"Membrane abundance, solnatide 10 min",αY447fs; 10 min,1.89 ± 0.16
same,EC50,"αI68fsβγ-ENaC; read-out: EC50, solnatide, αI68fs + WT βγ, HEK-293, whole-cell, -100 mV, n = 9",73.4 ± 13.4 nM
same,Effect of solnatide on current (words),"αI68fsβγ-ENaC; αI68fsβγ-ENaC, HEK-293",induced a current increase in αI68fsβγ-ENaC
same,EC50,[1],84 ± 4.9 nM
